Tests used:
anemic rats = assay: Stimulation of erythropoiesis in iron-deficient anemic rats; format: in vivo, Sprague Dawley rats
Experimental: HEMOLINK™ was evaluated for the stimulation of erythropoiesis in anemic rats. Male Sprague Dawley rats were made anemic on an iron deficient diet over a 4 week period. Six of the anemic rats received two infusions via tail vein injection one week apart (dose I and dose II) of 10% of total blood volume of 9.8 g/dL HEMOLINK™. Nine anemic rats received an equivalent amount of parenteral iron (INFJFER™, Sabex) per kg body weight for comparison. Both solutions contained 342.9 mg/L iron. The iron-deficient anemia of the HEMOLINK™ group was characterized by a pretreatment serum iron level of […] (n=1), a reticulocyte count of 0.39±0.08×10^12/L, a red blood cell count of 1.85±0.35×10^12/L, a 6.5±1.26% hematocrit and a total blood hemoglobin of 30.5±4.38 g/L.
Statistical comparisons in FIG. 14 are based on one way analyses of variance, followed by Bonefoni comparison post-hoc tests. The effect of HEMOLINK™ infusion on reticulocyte count, red blood cell count, total hemoglobin and hematocrit in anemic male rats was compared to iron infusion (INFUFER™; an iron-containing pharmaceutical composition) and to pretreatment levels. Significant differences are indicated by *p<0.05 compared with INFUFER™ and **p<0.01 compared with pretreatment anemic rats.

[1] = Half-life and blood level of Epo versus HEMOLINK after single i.v. administration; format: in vivo; details: for HEMOLINK level: single i.v. 4 ml/kg
Excerpt: Another strategy for the co-administration of Epo and hemoglobin is to reduce the number of Epo administrations required during therapy. Several Epo therapies follow the regimen of three weekly injections, either intravenously or subcutaneously. Multiple low dose or single high dose injections of Epo are required due to its relatively short half-life in vivo. […] HEMOLINK™ has a longer half-life. […] Longer half-life of the cross-linked hemoglobin can therefore compensate for Epo which may decline at a much faster rate. Thus, hemoglobin co-administered with Epo could prolong the effectiveness of Epo and therefore this combination therapy can be used to reduce the required frequency of Epo administrations.

[2] = anemic male rats, two i.v. infusions one week apart

With “HEMOLINK™: chemically crosslinked hemoglobin prepared by treating human hemoglobin with a polyaldehyde (O-raffinose)” the “erythropoietic response of anemic female rats” value (anemic rats; anemic female rats) was “not significantly different from INFUFER™”, the “serum iron level at study termination” value (anemic rats; anemic female rats, two doses) was 27.70 ± 9.88 mg/dL and the increase in hematocrit (anemic rats; [2]) was “significant increase”. For the same substance, the “increase in number of red blood cells” value (anemic rats; [2]) was “significant increase”, the “increase in number of reticulocytes” value (anemic rats; [2]) was “significant increase” and the “increase in total hemoglobin concentration” value (anemic rats; [2]) was “significant increase”. The “serum iron level at study termination” value (anemic rats; male rats, two infusions) was 10.0 ± 1.95 mg/dL, the HEMOLINK level ([1]; 0 hours post administration) was 4.7 mg/mL and the “half-life of the 64 kD fraction” value ([1]; 0.4 g HEMOLINK/kg body weight) was ~7 h. For the same substance, the “half-life of the >64 kD fraction” value ([1]; 0.4 g HEMOLINK/kg body weight) was ~21 h, the HEMOLINK level ([1]; 21 hours post administration) was 1.75 mg/mL and the HEMOLINK level ([1]; 42 hours post administration) was 0.81 mg/mL. For the same substance, the HEMOLINK level ([1]; 63 hours post administration) was 0.39 mg/mL and the HEMOLINK level ([1]; 84 hours post administration) was 0.19 mg/mL.
